Results reported in patent US20220235065A1 (Epizyme, Inc., priority 2016, published 2022).
Structures can show the parent of a compound that is named as a salt.

Target: T1, recombinant purified human EHMT2 913-1193 (Homo sapiens, UniProt Q96KQ7)
T1 construct: Recombinant purified human EHMT2 913-1193 (55 μM) synthesized by Viva was used for all experiments; purchased Viva
T1 sequence (Q96KQ7 913-1193): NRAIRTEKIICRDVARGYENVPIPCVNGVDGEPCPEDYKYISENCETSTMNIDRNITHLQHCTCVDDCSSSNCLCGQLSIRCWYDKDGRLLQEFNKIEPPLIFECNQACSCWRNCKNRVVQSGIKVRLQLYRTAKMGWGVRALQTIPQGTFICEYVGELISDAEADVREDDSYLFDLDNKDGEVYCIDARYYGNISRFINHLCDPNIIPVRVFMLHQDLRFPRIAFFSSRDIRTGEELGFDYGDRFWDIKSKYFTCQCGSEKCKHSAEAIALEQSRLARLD
Assay: EHMT2 enzyme assay on histone peptide substrate (3H-SAM Flashplate)
Format: biochemical
Details: read-out: EHMT2 PEP (IC50 μM)
Protocol: Recombinant purified human EHMT2 913-1193 (55 μM) synthesized by Viva was used for all experiments. Biotinylated histone peptides were synthesized by Biopeptide and HPLC-purified to >95% purity. Streptavidin Flashplates and seals were purchased from PerkinElmer and 384 Well V-bottom Polypropylene Plates were from Greiner. ^3H-labeled S-adenosylmethionine (3H-SAM) was obtained from American Radiolabeled Chemicals with a specific activity of 80 Ci/mmol. Unlabeled SAM and S-adenosylhomocysteine (SAH) were obtained from American Radiolabeled Chemicals and Sigma-Aldrich respectively. Flashplates were washed in a Biotek ELx-405 with 0.1% Tween. 384-well Flashplates and 96-well filter binding plates were read on a TopCount microplate reader (PerkinElmer). Compound serial dilutions were performed on a Freedom EVO (Tecan) and spotted into assay plates using a Thermo Scientific Matrix PlateMate (Thermo Scientific). Reagent cocktails were added by Multidrop Combi (Thermo Scientific).
General Procedure for EHMT2 Enzyme Assay on Histone Peptide Substrate.
10-point curves of test compounds were made on a Freedom EVO (Tecan) using serial 3-fold dilutions in DMSO, beginning at 2.5 mM (final top concentration of compound was 50 μM and the DMSO was 2%). A 1 μL aliquot of the inhibitor dilution series was spotted in a polypropylene 384-well V-bottom plate (Greiner) using a Thermo Scientific Matrix PlateMate (Thermo Scientific). The 100% inhibition control consisted of 1 mM final concentration of the product inhibitor S-adenosylhomocysteine (SAH, Sigma-Aldrich). Compounds were incubated for 30 minutes with 40 μL per well of 0.031 nM EHMT2 (recombinant purified human EHMT2 913-1193, Viva) in 1× assay buffer (20 mM Bicine [pH 7.5], 0.002% Tween 20, 0.005% Bovine Skin Gelatin and 1 mM TCEP). 10 μL per well of substrate mix comprising assay buffer, ^3H-SAM (3H-labeled S-adenosylmethionine, American Radiolabeled Chemicals, specific activity of 80 Ci/mmol), unlabeled SAM (American Radiolabeled Chemicals), and peptide representing histone H3 residues 1-15 containing C-terminal biotin (appended to a C-terminal amide-capped lysine, synthesized by Biopeptide and HPLC-purified to greater than 95% purity) were added to initiate the reaction (both substrates were present in the final reaction mixture at their respective Km values, an assay format referred to as “balanced conditions”). Reactions were incubated for 60 minutes at room temperature and quenched with 10 μL per well of 400 μM unlabeled SAM, then transferred to a 384-well streptavidin Flashplate (PerkinElmer) and washed in a Biotek ELx-405 well washer with 0.1% Tween after 60 minutes. 384-well Flashplates were read on a TopCount microplate reader (PerkinElmer).
IC50 curves were generated using triplicate wells per concentration of compound. The IC50 is the concentration of compound at which measured methylation is inhibited by 50% as interpolated from the dose response curves. IC50 values were calculated using a non-linear regression (variable slope-four parameter fit model) with by the following formula
where Top is fixed at 100% and Bottom is fixed to 0%, [I]=concentration of inhibitor, IC50=half maximal inhibitory concentration and n=Hill Slope.

IC50 [µM]	SMILES
> 10	CNc1cc(C)nc(Nc2ccc(OC)c(-c3cn4c(n3)CN(C)CC4)c2)n1 [Compound 6]
1 to 10	CNc1cc(C)nc(Nc2ccc(OC)c(-c3cn4c(n3)CNCC4)c2)n1 [Compound 7]
> 10	CNc1cc(C)nc(Nc2ccc(OC)c(-c3nc4n(n3)CCNC4)c2)n1 [Compound 8, 2-N-(4-methoxy-3-[4H,5H,6H,7H-[1,2,4]triazolo[1,5-a]pyrazin-2-yl]phenyl)-4-N,6-dimethylpyrimidine-2,4-diamine hydrochloride]
> 10	CNc1cc(C)nc(Nc2ccc(OC)c(-c3nc4n(n3)CCN(C)C4)c2)n1 [Compound 9]
0.1 to 1	CNc1cc(C)nc(Nc2ccc(OC)c(-n3ncc4c3CCN(C)C4)c2)n1 [Compound 10]
> 10	CNc1cc(C)nc(Nc2ccc(OC)c(-c3nnc(C)[nH]3)c2)n1 [Compound 11]
> 10	CNc1cc(C)nc(Nc2ccc(OC)c(-c3cn[nH]c3)c2)n1 [Compound 12, 2-N-[4-methoxy-3-(1H-pyrazol-4-yl)phenyl]-4-N,6-dimethylpyrimidine-2,4-diamine]
> 10	CNc1cc(C)nc(Nc2ccc(OC)c(-n3cc4ccccc4n3)c2)n1 [Compound 146]
1 to 10	CNc1cc(C)nc(Nc2ccc(OC)c(-n3cc4cc(Br)ccc4n3)c2)n1 [Compound 148]
0.1 to 1	CNc1cc(C)nc(Nc2ccc(OC)c(-n3cc4cncc(C)c4n3)c2)n1 [Compound 151]
> 10	CNc1cc(C)nc(Nc2ccc(OC)c(-c3ccc4nc(C)[nH]c4c3)c2)n1 [Compound 155]
> 10	CNc1cc(C)nc(Nc2ccc(OC)c(-c3ccc4cc(C)[nH]c4c3)c2)n1 [Compound 156]
< 0.1	CNc1cc(C)nc(Nc2ccc(OC)c(-c3cc4ccncc4[nH]3)c2)n1 [Compound 157, N2-(4-methoxy-3-(1H-pyrrolo[2,3-c]pyridin-2-yl)phenyl)-N4,6-dimethylpyrimidine-2,4-diamine]
0.1 to 1	CNc1cc(C)nc(Nc2ccc(OC)c(-c3cc4cnccc4n3C)c2)n1 [Compound 158]
< 0.1	CNCc1cn(-c2cc(Nc3nc(C)cc(NC)n3)ccc2OC)nn1 [Compound 159, N2-(4-methoxy-3-(4-((methylamino)methyl)-1H-1,2,3-triazol-1-yl)phenyl)-N4,6-dimethylpyrimidine-2,4-diamine]
< 0.1	CNc1cc(C)nc(Nc2ccc(OC)c(-n3cc(CN(C)C)c(C)n3)c2)n1 [Compound 160]
1 to 10	CNc1nc2cc(-n3cc(CN(C)C)nn3)c(OC)cc2n1C [Compound 163]
0.1 to 1	CNc1cc(C)nc(Nc2ccc(OC)c(-n3cc(C(C)NC)nn3)c2)n1 (stereo not shown) [Compound 164]
> 10	CNc1cc(C)nc(Nc2ccc(OC)c(-n3cc(C(NC)C(F)(F)F)nn3)c2)n1 (stereo not shown) [Compound 165]
> 10	CNc1cc(C)nc(Nc2ccc(OC)c(-n3cc(C(C)(C)NC)nn3)c2)n1 [Compound 166]
0.1 to 1	CNc1ccnc(Nc2ccc(OC)c(-n3cnc(CN(C)C)c3)c2)n1 [Compound 170]
< 0.1	CNc1ccnc(Nc2ccc(OC)c(-n3cc(CN(C)C)nn3)c2)n1 [Compound 171]
0.1 to 1	CCNCc1cn(-c2cc(Nc3nccc(NC)n3)ccc2OC)nn1 [Compound 172]
1 to 10	CNc1ccnc(Nc2ccc(OC)c(-n3cc(CNCC4CC4)nn3)c2)n1 [Compound 173]
> 10	CNc1ccnc(Nc2ccc(OC)c(-c3cc4[nH]ncc4cn3)c2)n1 [Compound 174]
< 0.1	CNc1ccnc(Nc2ccc(OC)c(-c3cc4[nH]ccc4cn3)c2)n1 [Compound 175, N2-(4-methoxy-3-(1H-pyrrolo[3,2-c]pyridin-6-yl)phenyl)-N4-methylpyrimidine-2,4-diamine]
1 to 10	CNc1ccnc(Nc2ccc(OC)c(-n3cc(C4CC4)nn3)c2)n1 [Compound 176]
> 10	CNc1ccnc(Nc2ccc(OC)c(-n3cc(C4COC4)nn3)c2)n1 [Compound 177]

IC50 [µM]	SMILES
> 10	CNc1ccnc(Nc2ccc(OC)c(-c3ccc4cc[nH]c4c3)c2)n1 [Compound 178]
0.1 to 1	CNCc1cnn(-c2cc3nc(NC)n(C)c3cc2OC)c1 [Compound 179]
< 0.1	CNCc1cnn(-c2cc(Nc3nccc(NC)n3)ccc2OC)c1 [Compound 181, N2-(4-methoxy-3-(4-((methylamino)methyl)-1H-pyrazol-1-yl)phenyl)-N4-methylpyrimidine-2,4-diamine]
0.1 to 1	CNCc1cnn(-c2cc3nc(NC)cc(C4CCOCC4)c3cc2OC)c1 [Compound 184]
0.1 to 1	CCNCc1cnn(-c2cc(Nc3nccc(NC)n3)ccc2OC)c1 [Compound 185]
< 0.1	CNCc1cnn(-c2cc3c(cc2OC)C2(CCC2)C(N)=N3)c1 [Compound 186]
< 0.1	CNCc1cnn(-c2cc3c(cc2OC)C2(CCC2)C(NC)=N3)c1 [Compound 187]
0.1 to 1	CNc1cc(C)nc(Nc2cnc(OC)c(-n3cc(C4CCCN4)cn3)c2)n1 (stereo not shown) [Compound 188]
1 to 10	CNc1ccnc(Nc2ccc(OC)c(-n3cc(CNC4CCC4)nn3)c2)n1 [Compound 191]
< 0.1	CNC1=Nc2cc(-n3cc([C@H]4CCCN4)nn3)c(OC)cc2C12CCC2 [Compound 192]
< 0.1	COc1cc2c(cc1-n1cc([C@H]3CCCN3)nn1)N=C(N)C21CCC1 [Compound 193]
< 0.1	COc1cc2c(cc1-n1cc(C3CCCN3)nn1)N=C(N)C21CCC1 (stereo not shown) [Compound 194]
0.1 to 1	COc1cc2c(cc1-n1cc([C@@H]3CCCN3)nn1)N=C(N)C21CCC1 [Compound 195]
0.1 to 1	CNc1cc(C2CCOCC2)c2cc(OC)c(-n3cc(C4CCCN4)nn3)cc2n1 (stereo not shown) [Compound 196]
< 0.1	CNc1cc(C)nc(Nc2ccc(OC)c(-c3[nH]c4cnccc4c3F)c2)n1 [Compound 199]
< 0.1	CNc1cc(C)nc(Nc2ccc(OC)c(-c3[nH]c4cnccc4c3C)c2)n1 [Compound 200, N2-(4-methoxy-3-(3-methyl-1H-pyrrolo[2,3-c]pyridin-2-yl)phenyl)-N4,6-dimethylpyrimidine-2,4-diamine]
1 to 10	CNc1cc(C)nc(Nc2ccc(OC)c(-c3cc4ncncc4[nH]3)c2)n1 [Compound 201]
< 0.1	COc1cc2c(cc1-c1cc3ccncc3[nH]1)N=C(N)C21CCC1 [Compound 202]
1 to 10	CNc1cc(C)nc(Nc2cnc(OC)c(-c3cc4ccncc4[nH]3)c2)n1 [Compound 204]
> 10	COc1cc(NC2CCNCC2)ncc1-c1cc2ccncc2[nH]1 [Compound 205]
< 0.1	CNc1cc(C)nc(Nc2ccc(OC)c(-c3cc4[nH]ccc4cn3)c2)n1 [Compound 206, N2-(4-methoxy-3-(1H-pyrrolo[3,2-c]pyridin-6-yl)phenyl)-N4,6-dimethylpyrimidine-2,4-diamine]
< 0.1	CNc1cc(C)nc(Nc2ccc(OC)c(-c3cc4[nH]c(C)cc4cn3)c2)n1 [Compound 207]
1 to 10	COc1cc(NC2CCNCC2)ncc1-c1cc2[nH]ccc2cn1 [Compound 208]
1 to 10	CNc1nc2cc(-c3cc4[nH]ccc4cn3)c(OC)cc2n1C [Compound 209]
1 to 10	CNc1cc(C)nc(Nc2ccc(OC)c(-c3cc4[nH]cnc4cn3)c2)n1 [Compound 210]
< 0.1	CNc1cc(C)nc(Nc2ccc(OC)c(-n3cc([C@@H]4CCCN4)nn3)c2)n1 [Compound 212, (S)—N2-(4-methoxy-3-(4-(pyrrolidin-2-yl)-1H-1,2,3-triazol-1-yl)phenyl)-N4,6-dimethylpyrimidine-2,4-diamine]
0.1 to 1	CNc1cc(C)nc(Nc2ccc(OC)c(-n3cc([C@H]4CCCN4)nn3)c2)n1 [Compound 213]
